Data taken from US20240417429A1, “COMPOSITIONS AND METHODS FOR SKIPPING EXON 45 IN DUCHENNE MUSCULAR DYSTROPHY” (Entrada Therapeutics, Inc., priority 2021, published 2024).

Key:
exon 45 = details: RMS cells, 24 hr incubation; for Exon Skipping Efficacy (%) with 5 μM AC: 5 μM AC with Endo-Porter; for Exon Skipping Efficacy (%) with 10 μM AC: 10 μM AC with Endo-Porter
Experimental: Cell Culture and Treatment: This study eruploys human rhabdomyosarcorna cells (RMS cells, ATCC CRL-2061. RMS cells were cultured in T75 flasks in RP 11640 (ATCC) medium with addition of 10% FBS (VWR) and Ix Penicillin-Streptormycin (VWR) under conditions of 37° C. and 5% CO2. 1×10^5 RMS cells were seeded per well in RPMII 640 full medium in 24-well plates for overnight. The next day the culture medium was replaced with 1 mL. fresh medium 5 μM or 10 μM of an AC from Table 8 was added to the cell culture and swirled to mix. Subsequently, 6 μL of Endo-Porter (Gene-tools) was added to the cell culture per well (1 mL of culture medium) and immediately swirled to mix. […] The cells were allowed to stand at room temperature for 5 minutes for cell lysis and pipetted a few times for a thorough mix. The lysates were collected in the Sample Tube RB (QIAGEN).
RNA Extraction: The RNA was extracted using QIAcube following the protocol from the manufacture. The concentration of the total RNA was determined using a NanoDrop 8000 (Thermo Fisher Scientific).
Nested PCR: Nested PCR was performed with 200 ng of the extracted total RNA and QIAGEN OneStep RT-PCR Kits for the primary amplification. A reaction solution of 50 μL was prepared following manufacture's protocol with DMD specific primers
The RT-PCR program used is as follows:
The secondary amplification PCR reaction was prepared using OneTaq® Hot Start 2X Master Mix following manufacture's protocol
Gel Electrophoresis Analysis for Exon Skipping Efficiency: 4 μL of the PCR product above was analyzed by 2% E-gel (Invitrogen′™) and imaged with E-Gel™ Power Snap Electrophoresis System (Thermo Fisher Scientific). The intensities of the skipped and full-length bands were analyzed. The polynucleotide level “A” of the band with exon 45 skipping and the polynucleotide level “B” of the band without exon 45 skipping were measured using ImageJ. 181 Based on these measurement values of “A” and “B”, the skipping efficiency was determined by the following equation: Skipping efficiency (%)=A/(A+B)'100.

D2/MDX mice [1] = details: Q2W IV; at 12 weeks vs pre-dose
Experimental: Grip strength was measured at pre-dose (FIG. 11A) and at 12 weeks (FIG. 11B).

D2/MDX mice [2] = details: Q2W IV; 4, 8 and 12 weeks post-treatment
Experimental: Serum CK was determined at 4 time points: pre-dose, and at 4, 8 and 12 weeks.

D2/MDX mice [3] = details: PMO only, Q2W IV; 2 to 12 weeks

Substance	Exon Skipping Efficacy (%) with 5 μM AC (exon 45) [%]	Exon Skipping Efficacy (%) with 10 μM AC (exon 45) [%]	Grip strength (D2/MDX mice [1])	Serum CK (D2/MDX mice [2])	Wire hang time, PMO treatment alone (D2/MDX mice [3])
5′-AATGCCATCCTGGAGTTCCTG-3′ [D45-21mer-n3]	41.8	52.7	–	–	–
5′-ATGCCATCCTGGAGTTCCTGT-3′ [D45-21mer-n4]	42.6	52.0	–	–	–
5′-ATGCCATCCTGGAGTTCCTGTA-3′ [D45-22mer-n5]	36.8	50.9	–	–	–
5′-CAATGCCATCCTGGAGTTCCTGT-3′ [D45-23mer-n4]	35.3	45.3	–	–	–
5′-CCCAATGCCATCCTGGAGTTCC-3′ [D45-22mer-n1]	45.1	62.3	–	–	–
5′-CCCAATGCCATCCTGGAGTTCCT-3′ [D45-23mer-n2]	46.4	58.2	–	–	–
5′-CCCAATGCCATCCTGGAGTTCCTG-3′ [D45-24mer-n3]	44.2	52.3	–	–	–
5′-CCCAATGCCATCCTGGAGTTCCTGT-3′ [D45-25mer-n4]	37.6	42.6	–	–	–
5′-CCGCTGCCCAATGCCATCCTG-3′ [D45-21mer-6]	45.9	59.5	–	–	–
5′-CCGCTGCCCAATGCCATCCTGGAG-3′ [D45-24mer-3]	37.2	40.8	–	–	–
5′-GCCCAATGCCATCCTGGAGTTCC-3′ [D45-23mer-n1]	39.6	54.4	–	–	–
5′-GGCCAAACCTCGGCTTACCTGAAAT-3′ [PMO-MDX23]	–	–	no significant improvement	no significant decrease	following the same trends as the vehicle D2.mdx group
5′-TGCCCAATGCCATCCTGGAGTTCCT-3′ [D45-25mer-n2]	44.0	48.8	–	–	–
